Patent US20260083750A1, “SMALL MOLECULE INHIBITORS OF KRAS PROTEINS” (MERCK SHARP & DOHME LLC, priority 2022, published 2026)

Experiments:
KRAS-G12D = target: T1, KRAS-G12D (Homo sapiens, UniProt P01116, G12D); assay: SOS-catalyzed nucleotide exchange assay (Procedure A, TR-FRET); assay type: biochemical; details: 60 min preincubation, SOS + GTP, read-out: KRAS G12D GNE IC50
T1 construct: N-terminal biotin-acceptor peptide […]
Source text: (§1) Procedure for SOS-Catalyzed Nucleotide Exchange Assay for KRAS-G12C/D/V, G13D, HRAS, and NRAS (Procedure A)
(§2) Recombinant KRAS-G12C protein used in this assay has an additional triple mutation (C51S/C80L/C118S), whereas KRAS-G12D/V, G13D, HRAS and NRAS are in context of their WT protein sequence background. Specifically, the SOS-catalyzed nucleotide exchange assay utilizes a preformed TR-FRET complex containing a specific biotinylated RAS protein (KRAS-G12C/V/D, G13D, HRAS, NRAS; described above) with Bodipy-GDP, and Terbium-streptavidin. Compounds are preincubated with this complex for 60 minutes. Subsequently, recombinant human SOS protein and unlabeled GTP are added to initiate the exchange reaction. Small molecule inhibitors stabilize the Bodipy-GDP complex whereas the untreated protein rapidly exchanges Bodipy-GDP for unlabeled GTP resulting in reduced TR-FRET signal.
(§3) To assemble the preformed TR-FRET complexes, each biotinylated RAS protein is diluted to 2 μM in an EDTA Buffer (20 mM HEPES pH 7.5, 50 mM sodium chloride, 10 mM EDTA, and 0.01% Tween) and incubated at room temperature for one hour. This mixture is then further diluted to 90 nM in an Assay Buffer (20 mM HEPES pH 7.5, 150 mM sodium chloride, 10 mM magnesium chloride, and 0.005% Tween) containing 15 nM of Terbium-Streptavidin (Invitrogen, catalog #PV3577) and 900 nM of Bodipy-GDP (Invitrogen, catalog #G22360) and incubated at room temperature for six hours. It should be noted that this preformed TR-FRET complex for each of the RAS protein were made ahead of time, aliquoted and stored at −80° C. until the day of the experiment.
(§4) Each test compound (10 mM stock in DMSO) is diluted in DMSO to make a final-10-point, 3-fold dilution and is acoustically dispensed into a 384-well assay plate (Corning, catalog #3820) using an Echo 550 (Labcyte). Each well of the assay plate receives 3 μL of a specific 3× RAS preformed TR-FRET complex and 3 μL of Assay Buffer and is incubated at room temperature for 60 minutes (preincubation time). Each well then receives 3 μL of 3× recombinant human SOS protein and GTP (Sigma, G8877) in Assay Buffer and is incubated at room temperature for 30 minutes (G13D), 60 minutes (G12C/D, H/NRAS) or 90 minutes for G12V. The final reaction in each well of […] consists of 3 mM GTP, specific Ras and SOS proteins in the following concentrations: KRAS-G12C/SOS=3 nM/40 nM, KRAS-G12D/SOS=1 nM/40 nM, KRAS-G12V/SOS=1.25 nM/160 nM, KRAS-G13D/SOS=1.25 nM/0 nM, HRAS & NRAS=1.25 nM/40 nM.
(§5) The time-resolved fluorescence resonance energy transfer (TR-FRET) signal is measured on an Envision (PerkinElmer) plate reader: Excitation filter=340 nm; emission1=495 nm; emission2=520 nm; dichroic mirror=D400/D505; delay time=[…]. The signal of each well is determined as the ratio of the emission at 520 nm to that at 495 nm. […] The apparent effect as a function of compound concentration is fit to a four-parameter logistic equation.

KRAS-G12V = target: T2, KRAS-G12V (Homo sapiens, UniProt P01116, G12V); assay: as above; assay type: biochemical; details: 60 min preincubation, SOS + GTP, read-out: KRAS G12V GNE IC50
T2 construct: N-terminal biotin-acceptor peptide […]
Source text: as §1, §2, §3, §4, §5

[1] = tested on: PANC08.13 cells (homozygous KRAS-G12D activating mutation); assay: Cellular phospho-ERK assay in G12D cell line; assay type: cell-based; details: Homo sapiens, PANC-08-13, 2 hours compound incubation, ratio of p-ERK vs. total ERK, read-out: PANC 0813 pERK IC50
Experimental: Procedure for Cellular Phospho-ERK Assay in G12D and G12V Cell Lines
PANC08.13 cells (ATCC® CRL-2551™), containing homozygous KRAS-G12D activating mutation, were cultured in growth medium made of RPMI1640-GlutaMAX™—I (ThermoFisher Scientific 61870) containing 15% heat inactivated fetal bovine serum (ThermoFisher Scientific 10091148)). SW620 cells (ATCC® […]), containing homozygous KRAS-G12V activating mutation, were cultured in growth medium that contains RPMI 1640-GlutaMAX™—I (ThermoFisher Scientific 61870) containing 10% heat inactivated fetal bovine serum (ThermoFisher Scientific 10091148).
Cells for the assay were harvested in growth medium after TrypLE (ThermoFisher scientific 12604021) digestion and were seeded in a 384-well collagen coated cell culture plate (Corning 356702) at a density of 10,000-15,000 cells/20 uL/well, and incubated at 37° C., 5% CO2 overnight. The compound (with 10 mM stock concentration) dose-response titrations were prepared [30 μM final ERK detection assay concentration and 1:3 dilutions, 10-point dose response] and appropriate amounts (270 nL) of test compounds were dispensed in a 384-well intermediate plate using an Echo 550 liquid handler. 30 uL/well of RPMI medium 1640-GlutaMAX™—I was added to the intermediate plate and the contents of the intermediate plate (10 uL/well) were then transferred to the 384-well collagen coated cell culture plate, which was incubated at 37° C., 5% CO2 for 2 hours. After removal of medium from the collagen coated cell culture plate, cells were lysed in lysis buffer from Alpha SureFire® Ultra™ Multiplex p-ERK and total ERK assay kit (PerkinElmer MPSU-PTERK) containing Halt™ Protease and Phosphatase inhibitor cocktail (ThermoFisher Scientific 78446) at room temperature with constant shaking at 300 rpm for 30 minutes. The cell lysates were then transferred to an OptiPlate-384 plate (PerkinElmer 6005620), and the phosphorylation of ERK (p-ERK) and total ERK levels were detected by Alpha SureFire® Ultra™ Multiplex p-EEK kit and total ERK assay kit (PerkinElmer MPSU-PTERK) following the manufacturer's protocol. Assay plates were read on a EnVision Multimode Plate Reader (PerkinElmer), and the ratio of p-ERK vs. total ERK in each well was used as the final readout. Dose response curves were analyzed using a 4-parameter logistic model to calculate IC50 values using Spotfire software.

T2 sequence (P01116 with tags, fused parts or gaps isoform P01116-2 G12V): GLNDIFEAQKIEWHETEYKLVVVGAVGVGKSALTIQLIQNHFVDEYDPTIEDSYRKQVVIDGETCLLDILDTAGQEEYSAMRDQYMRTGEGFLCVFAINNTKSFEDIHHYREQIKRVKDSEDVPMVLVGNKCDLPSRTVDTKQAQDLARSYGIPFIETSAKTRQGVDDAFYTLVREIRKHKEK
T1 sequence (P01116 with tags, fused parts or gaps isoform P01116-2 G12D): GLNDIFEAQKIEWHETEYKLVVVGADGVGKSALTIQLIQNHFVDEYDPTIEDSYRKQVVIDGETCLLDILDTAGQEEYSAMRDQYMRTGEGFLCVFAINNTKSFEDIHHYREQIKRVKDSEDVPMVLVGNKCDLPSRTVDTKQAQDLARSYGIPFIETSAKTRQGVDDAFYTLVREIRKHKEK

Compound | IC50 (KRAS-G12D) [nM] | IC50 (KRAS-G12V) [nM] | IC50 [1] [nM]
N#Cc1c(N)sc2c(F)ccc(-c3cc4nc(OC[C@@]56CCCN5C[C@H](F)C6)nc(N5CCCOCC5)c4nc3C(F)(F)F)c12 [Ex. 46, 2-amino-7-fluoro-4-(2-(((2R,7aS)-2-fluorotetrahydro-1H-pyrrolizin-7a(5H)-yl)methoxy)-4-(1,4-oxazepan-4-yl)-6-(trifluoromethyl)pyrido[3,2-d]pyrimidin-7-yl)benzo[b]thiophene-3-carbonitrile] | 40.9 | 8.9 | –
CCC1CCOCCN1c1nc(OC[C@@]23CCCN2C[C@H](F)C3)nc2c(F)c(-c3ccc(F)c4sc(N)c(C#N)c34)c(Cl)cc12 (stereo partly drawn) [compound 14, 2-amino-4-(6-chloro-4-(5-ethyl-1,4-oxazepan-4-yl)-8-fluoro-2-(((2R,7aS)-2-fluorotetrahydro-1H-pyrrolizin-7a(5H)-yl)methoxy)quinazo-lin-7-yl)-7-fluorobenzo[b]thio-phene-3-carbonitrile] | 6.32 | 6.18 | 154
N#Cc1c(N)sc2c(F)ccc(-c3c(Cl)cc4c(N5CCOCCC5C(F)(F)F)nc(OC[C@@]56CCCN5C[C@H](F)C6)nc4c3F)c12 (stereo partly drawn) [compound 15, 2-amino-4-(6-chloro-8-fluoro-2-(((2R,7aS)-2-fluorotetrahydro-1H-pyrrolizin-7a(5H)-yl)methoxy)-4-(5-(trifluoromethyl)-1,4-oxazepan-4-yl)quinazolin-7-yl)-7-fluorobenzo[b]thio-phene-3-carbonitrile] | 94 | 20.1 | 464
Cc1cc(N)nc(-c2c(Cl)cc3c(N4CCCSCC4)nc(OC[C@@]45CCCN4C[C@H](F)C5)nc3c2F)c1C(F)(F)F [compound 42, 6-(6-chloro-8-fluoro-2-(((2R,7aS)-2-fluorotetrahydro-1H-pyrrolizin-7a(5H)-yl)methoxy)-4-(1,4-thiazepan-4-yl)quinazolin-7-yl)-4-methyl-5-(trifluoromethyl)pyridin-2-amine] | 273 | 59.1 | –
Cc1cc(N)nc(-c2c(Cl)cc3c(N4CCOCC(F)(F)C4)nc(OC[C@@]45CCCN4C[C@H](F)C5)nc3c2F)c1C(F)(F)F [compound 43, 6-(6-chloro-4-(6,6-difluoro-1,4-oxazepan-4-yl)-8-fluoro-2-(((2R,7aS)-2-fluorotetrahydro-1H-pyrrolizin-7a(5H)-yl)methoxy)quinazolin-7-yl)-4-methyl-5-(trifluoromethyl)pyridin-2-amine] | 927 | 91.8 | –
N#Cc1c(N)sc2c(F)ccc(-c3c(Cl)cc4c(N5C6COCC5C6)nc(OC[C@@]56CCCN5C[C@H](F)C6)nc4c3F)c12 [compound 47, 4-(4-(3-oxa-6-azabicyclo[3.1.1]heptan-6-yl)-6-chloro-8-fluoro-2-(((2R,7aS)-2-fluorotetrahydro-1H-pyrrolizin-7a(5H)-yl)methoxy)quinazolin-7-yl)-2-amino-7-fluorobenzo[b]thiophene-3-carbonitrile] | 23.4 | – | –
N#Cc1c(N)sc2c(F)ccc(-c3c(Cl)cc4c(N5CCOCC5)nc(OC[C@@]56CCCN5C[C@H](F)C6)nc4c3F)c12 [compound 48, 2-amino-4-(6-chloro-8-fluoro-2-(((2R,7aS)-2-fluorotetrahydro-1H-pyrrolizin-7a(5H)-yl)methoxy)-4-morpholinoquinazolin-7-yl)-7-fluorobenzo[b]thiophene-3-carbonitrile] | 70.9 | 8.89 | –
C[C@H]1CCOCCN1c1nc(OC[C@@]23CCCN2C[C@H](F)C3)nc2c(F)c(-c3ccc(F)c4sc(N)c(C#N)c34)ccc12 [compound 49, 2-amino-7-fluoro-4-(8-fluoro-2-(((2R,7aS)-2-fluorotetrahydro-1H-pyrrolizin-7a(5H)-yl)methoxy)-4-((S)-5-methyl-1,4-oxazepan-4-yl)quinazolin-7-yl)benzo[b]thiophene-3-carbonitrile] | 477 | 160 | –
C[C@H]1CCOCCN1c1nc(OC[C@@]23CCCN2C[C@H](F)C3)nc2cc(-c3ccc(F)c4sc(N)c(C#N)c34)c(C(F)(F)F)nc12 [compound 50, 2-amino-7-fluoro-4-(2-(((2R,7aS)-2-fluorotetrahydro-1H-pyrrolizin-7a(5H)-yl)methoxy)-4-((S)-5-methyl-1,4-oxazepan-4-yl)-6-(trifluoromethyl)pyrido[3,2-d]pyrimidin-7-yl)benzo[b]thiophene-3-carbonitrile] | 30.5 | 7.6 | –
N#Cc1c(N)sc2c(F)ccc(-c3c(C(F)(F)F)cc4c(N5CC6COC(C6)C5)nc(OC[C@@]56CCCN5C[C@H](F)C6)nc4c3F)c12 (stereo partly drawn) [compound 51, 4-(4-((1R,5S)-6-oxa-3-azabicyclo[3.2.1]octan-3-yl)-8-fluoro-2-(((2R,7aS)-2-fluorotetrahydro-1H-pyrrolizin-7a(5H)-yl)methoxy)-6-(trifluoromethyl)quinazo-lin-7-yl)-2-amino-7-fluorobenzo[b]thiophene-3-carbonitrile] | 23.7 | 4.52 | –
N#Cc1c(N)sc2c(F)ccc(-c3c(C(F)(F)F)cc4c(N5C[C@H]6CC[C@H]6C5)nc(OC[C@@]56CCCN5C[C@H](F)C6)nc4c3F)c12 [compound 52, 4-(4-((1R,5S)-3-azabicyclo[3.2.0]heptan-3-yl)-8-fluoro-2-(((2R,7aS)-2-fluorotetrahydro-1H-pyrrolizin-7a(5H)-yl)methoxy)-6-(trifluoromethyl)quinazo-lin-7-yl)-2-amino-7-fluorobenzo[b]thiophene-3-carbonitrile] | 210 | 43.1 | –
N#Cc1c(N)sc2c(F)ccc(-c3c(C(F)(F)F)cc4c(N5CCC6(C5)CC6(F)F)nc(OC[C@@]56CCCN5C[C@H](F)C6)nc4c3F)c12 (stereo partly drawn) [compound 53, 2-amino-4-(4-(1,1-difluoro-5-azaspiro[2.4]heptan-5-yl)-8-fluoro-2-(((2R,7aS)-2-fluorotetrahydro-1H-pyrrolizin-7a(5H)-yl)methoxy)-6-(trifluoromethyl)quinazo-lin-7-yl)-7-fluorobenzo[b]thiophene-3-carbonitrile] | 972 | 84.7 | –
